Experimental data from ChEMBL document CHEMBL4507274 (2021).

Assays:
Conditions in all cases: Compound concentration 10.0 uM
[1] = biological target: T1, Protein kinase C iota type (Homo sapiens) (UniProt P41743); test: PKCiota (h) Upstate kinase activity assay
T1 sequence (whole entry): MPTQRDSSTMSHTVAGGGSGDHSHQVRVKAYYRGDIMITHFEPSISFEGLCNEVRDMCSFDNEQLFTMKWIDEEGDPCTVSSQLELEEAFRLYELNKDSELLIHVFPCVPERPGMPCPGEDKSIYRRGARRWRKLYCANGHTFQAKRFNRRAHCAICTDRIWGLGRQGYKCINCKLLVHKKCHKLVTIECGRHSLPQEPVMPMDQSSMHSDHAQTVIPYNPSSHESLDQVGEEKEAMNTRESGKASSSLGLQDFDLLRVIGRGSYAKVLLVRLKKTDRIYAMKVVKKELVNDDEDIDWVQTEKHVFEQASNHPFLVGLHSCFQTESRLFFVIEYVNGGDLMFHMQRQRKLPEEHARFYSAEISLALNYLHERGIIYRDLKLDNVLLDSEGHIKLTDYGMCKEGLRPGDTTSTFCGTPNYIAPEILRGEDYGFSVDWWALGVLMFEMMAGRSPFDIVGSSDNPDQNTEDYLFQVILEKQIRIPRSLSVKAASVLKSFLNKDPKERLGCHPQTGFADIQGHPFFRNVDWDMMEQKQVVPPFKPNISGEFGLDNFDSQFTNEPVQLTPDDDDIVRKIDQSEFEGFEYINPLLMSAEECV

[2] = biological target: Receptor tyrosine-protein kinase erbB-4 (Homo sapiens) (UniProt Q15303); test: ErbB4 (h) Upstate kinase activity assay
[3] = biological target: Ribosomal protein S6 kinase alpha-1 (Homo sapiens) (UniProt Q15418); test: Rsk1 (h) Upstate kinase activity assay

Measured: inhibition

Ribosomal protein S6 kinase alpha-1 (Homo sapiens), sequence (Q15418 whole entry): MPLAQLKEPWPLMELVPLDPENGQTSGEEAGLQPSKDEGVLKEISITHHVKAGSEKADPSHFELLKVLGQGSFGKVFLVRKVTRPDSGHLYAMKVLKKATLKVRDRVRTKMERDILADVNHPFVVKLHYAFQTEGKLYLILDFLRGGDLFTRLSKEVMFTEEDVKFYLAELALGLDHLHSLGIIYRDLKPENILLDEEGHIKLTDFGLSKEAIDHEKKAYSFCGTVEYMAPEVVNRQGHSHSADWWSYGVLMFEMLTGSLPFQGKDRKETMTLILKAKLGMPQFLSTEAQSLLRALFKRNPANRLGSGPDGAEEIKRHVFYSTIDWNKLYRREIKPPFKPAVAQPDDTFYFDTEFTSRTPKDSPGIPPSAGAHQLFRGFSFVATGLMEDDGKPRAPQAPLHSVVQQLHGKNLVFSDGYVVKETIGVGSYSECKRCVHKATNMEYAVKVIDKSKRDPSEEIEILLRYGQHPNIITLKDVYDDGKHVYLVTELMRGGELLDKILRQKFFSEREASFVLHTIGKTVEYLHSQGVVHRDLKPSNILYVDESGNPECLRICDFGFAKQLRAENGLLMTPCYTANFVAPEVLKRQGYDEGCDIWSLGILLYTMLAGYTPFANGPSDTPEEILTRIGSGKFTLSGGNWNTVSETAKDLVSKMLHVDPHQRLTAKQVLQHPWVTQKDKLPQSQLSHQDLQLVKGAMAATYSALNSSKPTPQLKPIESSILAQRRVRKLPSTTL
Receptor tyrosine-protein kinase erbB-4 (Homo sapiens), sequence (Q15303 whole entry): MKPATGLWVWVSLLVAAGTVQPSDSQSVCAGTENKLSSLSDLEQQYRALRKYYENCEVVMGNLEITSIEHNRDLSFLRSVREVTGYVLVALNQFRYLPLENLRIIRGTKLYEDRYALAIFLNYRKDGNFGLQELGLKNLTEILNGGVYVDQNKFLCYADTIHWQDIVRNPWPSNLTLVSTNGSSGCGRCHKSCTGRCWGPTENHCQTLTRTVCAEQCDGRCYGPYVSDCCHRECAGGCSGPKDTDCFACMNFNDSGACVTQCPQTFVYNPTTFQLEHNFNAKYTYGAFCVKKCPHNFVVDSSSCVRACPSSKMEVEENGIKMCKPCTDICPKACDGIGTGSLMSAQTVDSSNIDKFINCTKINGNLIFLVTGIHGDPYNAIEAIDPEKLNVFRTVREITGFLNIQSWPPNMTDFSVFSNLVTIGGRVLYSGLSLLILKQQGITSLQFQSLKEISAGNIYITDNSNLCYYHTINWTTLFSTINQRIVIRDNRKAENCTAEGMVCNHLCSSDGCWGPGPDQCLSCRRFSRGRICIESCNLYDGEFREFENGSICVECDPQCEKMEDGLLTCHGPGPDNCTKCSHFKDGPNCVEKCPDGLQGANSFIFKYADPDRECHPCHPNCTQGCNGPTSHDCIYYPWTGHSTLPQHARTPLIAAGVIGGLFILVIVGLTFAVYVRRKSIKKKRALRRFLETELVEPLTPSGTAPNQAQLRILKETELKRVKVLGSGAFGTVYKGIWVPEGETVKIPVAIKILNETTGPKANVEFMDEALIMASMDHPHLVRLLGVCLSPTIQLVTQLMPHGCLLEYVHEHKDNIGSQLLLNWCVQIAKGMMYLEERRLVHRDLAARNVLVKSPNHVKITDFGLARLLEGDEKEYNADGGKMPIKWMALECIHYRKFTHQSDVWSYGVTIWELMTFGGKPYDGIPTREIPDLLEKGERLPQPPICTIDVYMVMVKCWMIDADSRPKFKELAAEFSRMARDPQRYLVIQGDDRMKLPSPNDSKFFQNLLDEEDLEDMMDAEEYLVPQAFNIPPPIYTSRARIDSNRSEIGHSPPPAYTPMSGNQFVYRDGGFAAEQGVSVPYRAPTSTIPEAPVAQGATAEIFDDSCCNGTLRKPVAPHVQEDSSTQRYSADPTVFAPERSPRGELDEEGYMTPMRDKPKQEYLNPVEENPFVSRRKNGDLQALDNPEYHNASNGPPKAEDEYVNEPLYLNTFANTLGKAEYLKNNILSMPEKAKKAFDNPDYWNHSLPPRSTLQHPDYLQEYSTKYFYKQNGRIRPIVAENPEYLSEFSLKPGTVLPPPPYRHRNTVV

Cc1c[nH]c2nccc(Oc3c(F)cc(Nc4cc(Cl)nc(N)n4)cc3F)c12 [BAY-549]
inactive: [1] 18% | [2] 5% | [3] 72%
